This is an account of results in patent US11840686B2, “Modulation of prekallikrein (PKK) expression” (Ionis Pharmaceuticals, Inc., priority 2013, dated 2023).

Strand notation (5' to 3'): a small letter for the sugar, then the base; units joined by * are phosphorothioate-linked, units joined directly phosphodiester-linked; [ ] holds rarer units or linkages, { } end groups; capitals alone tell only the bases. e = 2'-O-(2-methoxyethyl) (MOE); [5mC] = 5-methylcytosine; d = 2'-deoxy (DNA)

In this series the test system is human PKK mRNA. The experiment in a line: Antisense inhibition of human PKK mRNA in HepaRG cells, 5,000 nM (Example 2). Type of series: cell-based. A digest of the protocol: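 HepaRG cells (20,000/well) electroporated with 5,000 nM MOE gapmer (phosphorothioate backbone, 5-methylcytosines) and harvested after ~24 h. PKK mRNA measured by qRT-PCR with primer probe set RTS3454, normalized to RIBOGREEN total RNA; percent inhibition versus untreated cells.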

Setting [1] is: HepaRG cells, electroporation, 5,000 nM antisense oligonucleotide, approx. 24 hours, primer probe set RTS3454, relative to untreated control cells, Table 11.
[2] abbreviates: Table 9 experiment, HepaRG cells, 20,000 cells per well, electroporation with 5,000 nM antisense oligonucleotide, approx. 24 hours, PKK mRNA by RT-PCR (RTS3454), relative to untreated control cells.
The mark [3] stands for this setting: Table 10 experiment, HepaRG cells, 20,000 cells per well, electroporation with 5,000 nM antisense oligonucleotide, approx. 24 hours, PKK mRNA by RT-PCR (RTS3454), relative to untreated control cells.
Setting [4] is: HepaRG cells, 5,000 nM antisense oligonucleotide, 5-10-5 gapmers, Table 16.
Where [5] appears, read: HepaRG cells, electroporation with 5,000 nM antisense oligonucleotide, approximately 24 hours, PKK mRNA by RT-PCR (RTS3454), relative to untreated control cells, Table 5 experiment.
Setting [6] is: HepaRG cells, 5,000 nM antisense oligonucleotide, 5-10-5 gapmers, Table 17.
[7] abbreviates: HepaRG cells, electroporation, 5,000 nM antisense oligonucleotide, approx. 24 hours, primer probe set RTS3454, relative to untreated control cells, Table 12.
[8] abbreviates: Table 7, HepaRG cells, electroporation with 5,000 nM antisense oligonucleotide, approx. 24 hours, PKK mRNA by RT-PCR (RTS3454), relative to untreated control cells.
Where [9] appears, read: human PKK mRNA, HepaRG cells, 5,000 nM antisense oligonucleotide, Table 18.
The mark [10] stands for this setting: HepaRG cells, 5,000 nM antisense oligonucleotide, human PKK mRNA, Table 18.

On to “546360 (antisense eA*e[5mC]*eT*eG*e[5mC]*dA*dT*d[5mC]*dT*dG*dA*dG*d[5mC]*dT*dT*eT*eT*e[5mC]*e[5mC]*eA) [compound 546360]”, for which the “% inhibition” value under setting [1] came out at 13%.

As to “547451 (antisense eT*eT*eG*eG*eT*dG*dA*dA*dT*dA*dA*dT*dA*dA*dT*e[5mC]*eT*e[5mC]*eT*eT) [compound 547451]”, the “% inhibition” value was 75% under setting [2] and 64% under setting [3].

With “547489 (antisense eA*eG*eA*e[5mC]*eA*d[5mC]*d[5mC]*dA*dG*dG*dT*dT*dG*d[5mC]*dT*e[5mC]*e[5mC]*e[5mC]*eT*eG) [compound 547489]”, the “% inhibition” value under setting [1] came out at 34%.

Take “546926 (eG*e[5mC]*e[5mC]*eA*eT*d[5mC]*d[5mC]*dA*dG*dG*dG*dT*dG*d[5mC]*dT*e[5mC]*eT*e[5mC]*e[5mC]*e[5mC]; antisense) [compound 546926]”: under setting [4], the “% inhibition” value was 81%.

For “547279 (antisense eA*eA*eA*eA*e[5mC]*dA*d[5mC]*dA*dA*dT*dT*dG*d[5mC]*dT*dT*e[5mC]*eT*eT*eG*eG) [compound 547279]”, the “% inhibition” value under setting [5] stood at 69%.

Regarding “547018 (eG*eG*eT*eG*eG*d[5mC]*dG*dG*dG*dA*dT*dT*dG*dG*dT*eG*eG*eT*eG*eG; antisense) [compound 547018]”, the “% inhibition” value under setting [6] came out at 58%.

Consider “547553 (antisense eT*eG*e[5mC]*eT*e[5mC]*d[5mC]*d[5mC]*d[5mC]*dA*dT*dG*d[5mC]*dA*dT*dA*e[5mC]*eT*e[5mC]*eG*e[5mC]) [compound 547553]”, for which, under setting [7], the “% inhibition” value amounted to 64%.

Take “546363 (antisense e[5mC]*eT*eT*e[5mC]*eT*d[5mC]*dA*dT*dG*d[5mC]*dT*dG*dG*dT*dG*eA*e[5mC]*eT*eG*e[5mC]) [compound 546363]”: the “% inhibition” value under setting [1] turned out to be 81%.

In the case of “547371 (eA*eT*eG*eG*eT*d[5mC]*d[5mC]*dG*dA*d[5mC]*dA*d[5mC]*dA*d[5mC]*dA*eA*eA*eA*eG*e[5mC]; antisense) [compound 547371]”, the “% inhibition” value under setting [8] is listed as 66%.

Turning to “547023 (eG*eA*eT*eT*eG*dG*dT*dG*dG*d[5mC]*dG*dG*dG*dA*dT*e[5mC]*eG*eG*eT*eG; antisense) [compound 547023]”, the “% inhibition” value under setting [6] amounted to 91%.

Regarding “547665 (eT*eG*eT*eA*e[5mC]*d[5mC]*dT*dA*dT*dA*dA*d[5mC]*dT*dA*dT*eA*eA*e[5mC]*eA*eG; antisense) [compound 547665]”, the “% inhibition” value (human PKK mRNA, HepaRG cells, 5-10-5 motif oligonucleotides targeting SEQ ID NO: 1 and 10) is 10%.

As for “548774 (antisense e[5mC]*e[5mC]*eT*eA*dT*dA*dA*d[5mC]*dT*dA*dT*dA*dA*e[5mC]*eA*eG*eT) [compound 548774]”, under setting [9], the “% inhibition” value is 0%.

On to “547308 (antisense eT*e[5mC]*eA*eA*eG*dA*dA*dG*d[5mC]*dA*dA*d[5mC]*d[5mC]*dA*dA*eA*e[5mC]*e[5mC]*eT*eT) [compound 547308]”, for which the “% inhibition” value under setting [5] came to 66%.

For the substance “548712 (DNA eA*e[5mC]*eT*dG*dT*dA*d[5mC]*dT*dA*dG*dT*dT*dT*e[5mC]*e[5mC]*eT; antisense) [compound 548712]”, the “% inhibition” value under setting [10] stood at 9%.

On to “546365 (antisense eA*eG*eA*e[5mC]*eT*d[5mC]*dT*dG*dG*dA*d[5mC]*dT*dG*d[5mC]*dT*eT*e[5mC]*eT*e[5mC]*eA) [compound 546365]”, for which the “% inhibition” value under setting [1] is on record as 64%.

For “546756 (eA*eT*eA*eA*eG*d[5mC]*dA*dT*d[5mC]*dT*d[5mC]*dT*d[5mC]*dT*dG*eA*e[5mC]*e[5mC]*eT*eA; antisense) [compound 546756]”, the “% inhibition” value (Table 13, human PKK mRNA in HepaRG cells, 5-10-5 gapmers) was 47%.

As to “548747 (antisense eT*eA*e[5mC]*eT*dA*dG*dT*dT*dT*d[5mC]*d[5mC]*dT*dA*dT*eA*eA*e[5mC]*eT) [compound 548747]”, the “% inhibition” value under setting [9] is 2%.

For the substance “546503 (eG*eT*eG*eA*eT*dG*d[5mC]*dG*dA*dT*dT*dT*dT*d[5mC]*d[5mC]*eA*eT*eG*e[5mC]*eA; antisense) [compound 546503]”, under setting [7], the “% inhibition” value was 53%.

Turning to “547357 (e[5mC]*eT*eT*eT*eA*dA*dT*dA*dG*dG*d[5mC]*dA*dA*dT*dT*eG*eT*eT*e[5mC]*e[5mC]; antisense) [compound 547357]”, the “% inhibition” value (HepaRG cells, electroporation with 5,000 nM antisense oligonucleotide, approximately 24 hours, PKK mRNA by RT-PCR (RTS3454), relative to untreated control cells, Table 6 experiment) turned out to be 78%.

With “547497 (antisense eA*e[5mC]*eT*eG*e[5mC]*dT*dT*d[5mC]*dT*d[5mC]*dA*dT*dG*d[5mC]*dT*eG*eG*eT*eG*eA) [compound 547497]”, the “% inhibition” value under setting [1] is recorded as 68%.

As to “546229 (antisense eA*e[5mC]*eA*eT*eT*dT*d[5mC]*dT*dT*dT*dG*dT*dG*dA*d[5mC]*eT*e[5mC]*eG*eA*eT) [compound 546229]”, the “% inhibition” value under setting [8] was 19%.

As to “546378 (antisense eT*eT*eT*eG*e[5mC]*dA*dG*dA*dT*dG*dA*dG*dG*dA*d[5mC]*e[5mC]*e[5mC]*e[5mC]*e[5mC]*e[5mC]) [compound 546378]”, under setting [1], the “% inhibition” value is on record as 79%.

Regarding “548710 (DNA eT*eG*eT*dA*d[5mC]*dT*dA*dG*dT*dT*dT*d[5mC]*d[5mC]*eT*eA*eT; antisense) [compound 548710]”, the “% inhibition” value under setting [10] is on record as 0%.

Take “547283 (antisense eA*eG*eT*eT*eG*d[5mC]*dT*dT*dG*d[5mC]*dT*dT*dG*dA*dA*eT*eA*eA*eA*eA) [compound 547283]”: under setting [5], the “% inhibition” value is reported as 67%.

As for “546880 (eG*eT*eT*eT*e[5mC]*d[5mC]*dT*dA*dT*dA*dA*d[5mC]*dA*dG*dT*eA*eT*e[5mC]*eA*e[5mC]; antisense) [compound 546880]”, for the setting “human PKK mRNA in HepaRG cells, 5-10-5 gapmers, Table 14”, the “% inhibition” value is 41%.

For the substance “547754 (eG*eG*eG*eA*eT*dT*dG*dG*dT*dG*dG*dT*dT*dG*dG*eT*eG*eG*e[5mC]*eG; antisense) [compound 547754]”, under setting [6], the “% inhibition” value amounted to 47%.

Consider “546918 (eA*eA*e[5mC]*eA*eT*d[5mC]*dA*d[5mC]*dT*dG*dT*dA*d[5mC]*d[5mC]*dT*eA*eT*eA*eA*e[5mC]; antisense) [compound 546918]”, for which, under setting [4], the “% inhibition” value is given as 14%.

For the substance “546252 (eT*e[5mC]*eT*eT*eG*dG*d[5mC]*dA*dA*dA*d[5mC]*dA*dT*dT*d[5mC]*eA*e[5mC]*eT*e[5mC]*e[5mC]; antisense) [compound 546252]”, the “% inhibition” value (Table 8, HepaRG cells, electroporation with 5,000 nM antisense oligonucleotide, approx. 24 hours, PKK mRNA by RT-PCR (RTS3454), relative to untreated control cells) turned out to be 73%.

On to “547485 (antisense e[5mC]*eA*eA*eA*e[5mC]*dT*dA*dA*dG*dG*dG*dA*d[5mC]*d[5mC]*dA*e[5mC]*e[5mC]*eT*eG*eA) [compound 547485]”, for which the “% inhibition” value reads like this: under setting [2], 49%; under setting [3], 66%.

As for “547380 (eT*eG*eA*e[5mC]*eT*d[5mC]*dG*dA*dT*dT*dT*dT*d[5mC]*d[5mC]*dA*eT*eA*e[5mC]*eA*eT; antisense) [compound 547380]”, the “% inhibition” value under setting [8] was found to be 42%.

For the substance “548767 (antisense eT*eA*eT*e[5mC]*dA*d[5mC]*dT*dG*dT*d[5mC]*d[5mC]*dT*dA*eT*eA*eT*e[5mC]) [compound 548767]”, the “% inhibition” value under setting [9] came to 59%.

With “547525 (antisense e[5mC]*e[5mC]*eT*e[5mC]*eG*d[5mC]*dA*dT*dT*dG*dT*d[5mC]*dA*dG*d[5mC]*e[5mC]*e[5mC]*e[5mC]*eT*eG) [compound 547525]”, the “% inhibition” value under setting [1] worked out at 78%.

In the case of “547681 (antisense eA*eA*eT*eA*eT*d[5mC]*dA*d[5mC]*dT*dG*dT*dA*d[5mC]*d[5mC]*dT*eA*eT*eA*eT*e[5mC]) [compound 547681]”, the “% inhibition” value under setting [4] came to 6%.

The % inhibition is the percentage by which the read-out fell short of the control.
